Experimental findings from patent US20240301474A1, “NUCLEASES FOR SIGNAL AMPLIFICATION” (Amazon Technologies, Inc., priority 2021, published 2024) are described below.

Data set [1] concerns the target T1, TtCsm6 (Thermus thermophilus, UniProt Q53W17, G18R). The note with it: 100 nM TtCsm6, 10 μM cA4, FIG. 22.
Procedure: (§4) Varying concentrations of nuclease (SyCsx1, PfuCsx1, or TtCsm6) in reaction buffer (2.1 NEB Buffer-50 mM NaCl, 10 mM Tris-HCl, 10 mM MgCl2, 100 μg/ml BSA) with 1 U/μl murine RNase inhibitor (NEB) and 600 nM FAM-Q reporter (IDT) was mixed with varying concentrations of cA3, cA4, cA6, rA3>P or rA4>P (Biolog or IDT). Negative control was water free of activator. Measurements were taken at 37° C. every 1 min in a Tecan Infinite 200 PRO plate reader (λex, 485 nm; λem, 535 nm).
(§5) The objective of these experiments was to determine the preferred reporters for SyCsx1, PfuCsx1, and TtCsm6 incubated with cyclic activator cA4.
The subject of data set [2] is SyCsx1. Kind of data set: Reporter preference assay, SyCsx1 activated by cA4. The note with it: 100 nM SyCsx1, 10 μM cA4, FIG. 20.
Procedure: as §4, §5
Data set [3] relates to PfuCsx1. Briefly: Reporter preference assay, PfuCsx1 activated by cA4. To be noted: 100 nM PfuCsx1, 10 μM cA4, FIG. 21.
Procedure: as §4, §5
Data set [4] deals with SyCsx1. Kind of data set: Activation of SyCsx1 by linear and cyclic activators (FAM-Q fluorescence). To be noted: 100 nM SyCsx1, FAM-Q polyC ssRNA reporter; for activation of SyCsx1 (fluorescence time course): 37° C., FIG. 14A/14B; for rapidity of SyCsx1 activation (time until maximum fluorescence): FIG. 14B.
Procedure: (§6) The objective of these experiments was to assess activation of SyCsx1, PfuCsx1, and TtCsm6 by incubating the nucleases with cyclic or linear activators.
as §4
The target in data set [5] is T1, TtCsm6. Briefly: Activation of TtCsm6 by linear and cyclic activators (fluorescence). To be noted: 100 nM TtCsm6, RNAse Alert (IDT) reporter, FIG. 16.
Procedure: as §6, §4
Data set [6] relates to PfuCsx1. Kind of data set: Activation of PfuCsx1 by linear and cyclic activators (FAM-Q fluorescence). To be noted: 100 nM PfuCsx1, FAM-Q polyA ssRNA reporter, FIG. 15.
Procedure: as §6, §4
For another data set, the target named is NucC enzyme (Escherichia coli, UniProt D7Y2H5). Briefly: NucC activation by cyclic and linear activator with dsM13 plasmid. The format is biochemical. The note with it: 10 nM NucC, 10 nM activator, 37° C., 4 hours. Here is the method: The objective of this experiment was to achieve activation of the NucC enzyme by incubating this enzyme with its cyclic (c-triAMP) and linear (triAMP)>P activator and the dsM13 plasmid.
The conditions that were tested are outlined in Table 14 below.
A NucC Mix (dsM13) was prepared as outlined in Table 15 below.
The mixture described in Table 15 was divided into two PCT tubes. The mixture was then incubated at 37° C. for 4 hours. Next, the samples were run on a 1.5% agarose gel.

For data set [7], the system named is SyCsx1. Kind of data set: Limit of detection (LoD) assay, SyCsx1 activated by rA4>P. To be noted: 10 nM SyCsx1, FAM-Q polyC reporter; 0.1, 1, 10 nM tested; FIG. 17.
Procedure: as §4
Data set [8] has as its target T1, TtCsm6. Briefly: Limit of detection (LoD) assay, TtCsm6 activated by rA4>P. The note with it: 100 nM TtCsm6, FAM-Q polyC reporter; 0.01, 0.1, 1, 10 μM tested; FIG. 19.
Procedure: as §4
Data set [9] concerns PfuCsx1. Briefly: Limit of detection (LoD) assay, PfuCsx1 activated by rA4>P. The note with it: 100 nM PfuCsx1, FAM-Q polyA reporter; 0.01, 0.1, 1, 10 μM tested; FIG. 18.
Procedure: as §4
Data set [10] concerns dsM13 (M13mp18 RF I plasmid). Briefly: NucC activity assay with M13 plasmid (double-stranded). The format is biochemical. The note with it: 10 nM NucC, 10 nM c(triAMP), 37° C., 2:30 hours, 1% agarose gel. As to the method:
(§1) The objective of this experiment was to determine whether the NucC enzyme cleaves both double-stranded DNA and single-stranded DNA by incubating the enzyme with its cyclic activator (c-triAMP) and the dsM13 or ssM13 plasmid.
(§2) The conditions that were tested are outlined in Table 11 below.
A first NucC Mix (dsM13) was prepared as outlined in Table 12 below.
(§3) Each mixture described in Table 12 and Table 13 was divided into two PCT tubes. The mixture was then incubated at 37° C. for 2:30 hours. Next, the samples were run on a 1% agarose gel.

The subject of data set [11] is ssM13 (M13mp18 single-stranded plasmid). Kind of data set: NucC activity assay with M13 plasmid (single-stranded). The format is biochemical. The note with it: 10 nM NucC, 10 nM c(triAMP), 37° C., 2:30 hours, 1% agarose gel. Here is the method: as §1, §2
A second NucC Mix (ssM13) was prepared as outlined in Table 13 below.
as §3

Entries after “also recorded” stand apart in the source; their conditions may differ. {FAM} = 6-carboxyfluorescein (IDT 56-FAM); {IABkFQ} = Iowa Black FQ quencher

Sequence of SyCsx1 (as listed by the source): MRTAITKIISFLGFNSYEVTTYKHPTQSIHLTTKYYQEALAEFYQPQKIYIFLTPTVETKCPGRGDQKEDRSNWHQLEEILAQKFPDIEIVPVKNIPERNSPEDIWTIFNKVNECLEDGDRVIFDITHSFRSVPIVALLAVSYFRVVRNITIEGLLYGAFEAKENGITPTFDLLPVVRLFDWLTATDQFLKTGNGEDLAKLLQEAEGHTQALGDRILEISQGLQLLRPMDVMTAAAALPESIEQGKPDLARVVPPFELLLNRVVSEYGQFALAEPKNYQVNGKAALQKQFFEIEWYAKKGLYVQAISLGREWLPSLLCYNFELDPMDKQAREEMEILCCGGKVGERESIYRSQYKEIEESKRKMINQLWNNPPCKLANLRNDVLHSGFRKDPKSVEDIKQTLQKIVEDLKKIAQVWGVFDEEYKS
Sequence of PfuCsx1 (as listed by the source): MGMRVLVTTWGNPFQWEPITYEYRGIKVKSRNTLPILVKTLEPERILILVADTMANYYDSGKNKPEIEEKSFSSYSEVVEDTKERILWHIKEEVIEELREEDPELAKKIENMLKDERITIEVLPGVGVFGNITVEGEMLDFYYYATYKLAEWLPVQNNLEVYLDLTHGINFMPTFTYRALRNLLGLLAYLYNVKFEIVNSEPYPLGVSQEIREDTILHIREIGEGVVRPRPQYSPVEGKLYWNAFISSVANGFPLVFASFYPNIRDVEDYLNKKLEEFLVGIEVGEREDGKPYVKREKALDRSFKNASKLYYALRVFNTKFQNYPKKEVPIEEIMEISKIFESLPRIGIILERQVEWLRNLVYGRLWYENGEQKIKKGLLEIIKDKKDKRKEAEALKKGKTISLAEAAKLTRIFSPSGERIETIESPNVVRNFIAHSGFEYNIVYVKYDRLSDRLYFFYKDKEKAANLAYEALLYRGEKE
T1 sequence (Q53W17 whole entry G18R): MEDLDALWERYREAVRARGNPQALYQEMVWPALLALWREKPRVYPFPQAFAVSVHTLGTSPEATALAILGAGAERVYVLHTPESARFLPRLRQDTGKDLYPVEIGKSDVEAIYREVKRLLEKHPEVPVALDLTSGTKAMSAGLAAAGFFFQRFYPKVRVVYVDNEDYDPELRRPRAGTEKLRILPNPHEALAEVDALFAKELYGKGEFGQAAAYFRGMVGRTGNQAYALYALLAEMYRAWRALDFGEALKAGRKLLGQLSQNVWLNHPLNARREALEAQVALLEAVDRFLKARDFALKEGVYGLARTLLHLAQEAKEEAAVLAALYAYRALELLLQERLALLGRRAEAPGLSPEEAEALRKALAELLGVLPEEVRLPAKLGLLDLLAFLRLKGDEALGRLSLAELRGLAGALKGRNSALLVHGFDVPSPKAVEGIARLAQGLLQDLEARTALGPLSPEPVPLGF

Turning to “5′-/56 FAM/rArUrGrUrCrCrCrCrUrGrArA/3IABKFQ/-3′ (AUGUCCCCUGAA; RNA, 5' {FAM}, 3' {IABkFQ}, backbone not given here) [FAM-Q UCU]”, the “reporter preference upon cleavage by TtCsm6” value in the data set with TtCsm6 [1] is “best reporters”. The “reporter preference upon cleavage by SyCsx1” value in the data set with SyCsx1 [2] is recorded as “best reporters”. Moreover, in the data set on PfuCsx1 [3], the “reporter preference upon cleavage by PfuCsx1” value is recorded as “best reporters”.

As for cyclic hexaAMP [cA6], the “activation of SyCsx1 (fluorescence time course)” value (from here on “activation of SyCsx1”) with SyCsx1 [4] is listed as “activated”.

Consider cyclic tetraAMP [cA4], for which, on TtCsm6 [5], the “activation of TtCsm6 (fluorescence time course)” value is on record as “activated”. Moreover, in the data set on SyCsx1 [4], the “activation of SyCsx1” value is “activated” and the “rapidity of SyCsx1 activation (time until maximum fluorescence)” value is on record as “most rapid activations”. For the same molecule, in the data set on PfuCsx1 [6], the “activation of PfuCsx1 (fluorescence time course)” value is “activated”.

On to cyclic triAMP [c-triAMP], for which the “degradation of the dsM13 plasmid by NucC in the presence of activator” value on NucC enzyme (FIG. 13) is reported as “complete degradation”. Further, the “activation of the NucC enzyme” value on NucC enzyme (dsM13 plasmid, 1.5% agarose gel) is listed as “achieved; also recorded: activated”.

Consider linear tetraAMP>P [rA4>P], for which the “activator concentration that activates SyCsx1 (detection limit)” value in the data set with SyCsx1 [7] was determined as 0.1 nM. For the same molecule, the “activator concentration that activates TtCsm6 (detection limit)” value at TtCsm6 [8] is no less than 1 µM. For the same molecule, the “activator concentration that activates PfuCsx1 (detection limit)” value with PfuCsx1 [9] is no less than 1 µM. In addition, the “activation of TtCsm6 (fluorescence time course)” value on TtCsm6 [5] is given as “activated”. Also, in the data set with SyCsx1 [4], the “activation of SyCsx1” value is recorded as “activated” and the “rapidity of SyCsx1 activation (time until maximum fluorescence)” value is recorded as “most rapid activations”. Besides, the “activation of PfuCsx1 (fluorescence time course)” value in the data set on PfuCsx1 [6] is reported as “activated”.

For the molecule linear triAMP>P [rA3>P], the “activation of SyCsx1” value with SyCsx1 [4] is recorded as “activated”.

B1: NucC: nuclease; amino acid sequence SEQ ID NO: 2 (NucC wild sequence) (protein, listed as Escherichia coli)
chain: MSDWSLSQLFASLHEDIQLRLGTARKAFQHPGAKGDASEGVWIEMLDTYLPKRYQAANAFVVDSLGNFSDQIDVVVFDRQYSPFIFKFNEQIIVPAESVYAVFEAKQSASADLVAYAQRKVASVRRLHRTSLPIPHAGGTYPAKPLIPILGGLLTFESDWSPALGMSFDKALNGDLSDGRLDMGCVASHGHFYFNNIDSKFNFEHGNKPATAFLFRLIAQLQFSGTVPMIDIDAYGKWLAN
With B1, the “cleavage of double-stranded DNA” value in data set [10] is recorded as “cleaved”. Moreover, the “cleavage of single-stranded nucleic acid” value in data set [11] is recorded as “not”.
